{
  "source": "patent US5023270A",
  "about": "“Antidepressant method of use” (priority 1988, dated 1991)",
  "key": {"[1]": {"assay": "Acute oral toxicity, single administration, 14 days observation", "conditions": "in vivo, 2% carboxymethylcellulose with 5% Tween 80", "experimental": "Animal trials were performed with mice and male rats free from specific pathogenic organisms, subject to a preliminary water diet for 18 hours. All animals were kept under observation during 14 days after a single oral administration, in order to detect any eventuality of toxic after effects. The median lethal dose LD50 and its confidence limits were computed by the graphic method of J. T. Litchfield and F. Wilcoxon.\nOral administration was used throughout the experiments, with an aqueous solution of 2% carboxymethylcellulose treated with Tween®80 (Difco or ICI) at 5% as dispersing agent."}, "plasma melatonin [2]": {"tested_on": "plasma melatonin", "assay": "Plasma melatonin in psychiatric patients and control subjects after a single oral dose of 5-MOP", "format": "in vivo, human", "conditions": "for Delta Melatonin: 11:00 p.m. minus 8:00 p.m. baseline, 40 mg oral; for Melatonin (11:00 p.m.): 3 h after 40 mg oral 5-MOP, mean ± SEM", "experimental": "FIG. 1 is a bar histogram which depicts the plasma melatonin levels in six diverse groups of human subjects before and after treatment with a single dose of 40 mg 5-methoxypsoralen (5-MOP) administered orally to each subject at 8:00 p.m. The subjects were maintained in total darkness or under weak illumination (without UV) for at least 9 hours after 5-MOP intake (corresponding to the sleep period). Blood samples were taken at 8:00 p.m. prior to 5-MOP administration and at 11:00 p.m. (see text for full description of experimental details). Plasma melatonin levels were evaluated by radioimmunology after extraction in diethylether using the method of Treifenaueret, Andres. Melatonin levels were established and compared with each group of subjects with similar age means using paired t-tests and between groups using unpaired t-tests. \" -melatonin is defined as the difference between plasma melatonin levels (nmd/1) after 5-MOP uptake (3 hours after administration and =before 5-MOP administration; =after 5-MOP uptake. (p=significance of difference between the two values. )\nThe experiment was performed on six groups of human subjects.\nControl groups 1, 2 and 3 comprised respectively:\nGroup 1: 13 elderly, sane subjects (7 women, 6 men).\nGroup 2: 13 middle-aged, sane subjects (6 women, 7 men).\nGroup 3: 13 young, sane subjects (6 women, 7 men).\nThese subjects had been contacted for welfare or minor nervous problems, but were free from major psychiatric disorders or organic illnesses. Most aged subjects were waiting for admission to nursing homes.\nThese elderly patients had no major cardiac, hepatic, renal, endocrineous or osseous disorders, nor any evolutionary pathology.\nGroup 5 comprised 13 subjects (8 women, 5 men) in an acute depressive phase, showing all symptoms of a major depressive disorder in the sense of DSM III.\nGroup 6 comprised 13 schizophrenic subjects (6 women, 7 men), according to DSM III criteria.\nThe diagnosis was established by means of a structured examination for affective disorders, schizophrenia and dementia, performed on each patient by two different psychiatrists. Any patient with a history of serious attendant illnesses, such as high blood pressure, diabetes, or other endocrineous pathologies, with distorted clinical or biological results, were excluded from the study. The patients received no medicaments 4 days prior to the experiment, except for 5 mg nitrazepam or 0.25 mg trazolam in the evening. All subjects participated voluntarily in the experiment and 5 were advised of its purpose. A single dose of 40 mg 5-methoxypsoralen (5-MOP) was given orally to all subjects at 8:00 p.m. To avoid any photosensitivity effects due to psoralen, patients were maintained in total darkness or under weak illumination (without UV) for at least 9 hours after 5-MOP intake (corresponding to the sleep period).\nBlood samples were taken at 8:00 p.m., prior to 5-MOP administration, and again at 11:00 p.m., by means of a stationary catheter attached to the forearm at least twenty minutes before extraction of the first blood sample. Samples were immediately centrifugated at 4° C. and refrigerated at -20° C. until quantitative analysis. Plasma levels were evaluated by radioimmunology after extraction in diethylether, using the #method of Treifenaueret, Andres.\nMelatonin levels were established and compared within each group by means of paired t-tests, and between groups by unpaired t-tests.\nBecause age could influence endocrinous responses, only groups with similar age means were compared in these experiments.\n\" melatonin\" has been defined as the difference between melatonin levels after 5-MOP intake and the corresponding baseline values. The parameter \"p\" measures the significance of the difference between two values."}, "[3]": {"tested_on": "major depressive disorder", "assay": "Clinical study of antidepressant effect (17 HDRS items), major depressive disorder", "format": "in vivo, human", "experimental": "Experimental verification of the clinical effects of 5-MOP on depressive patients was performed on 24 physically sane subjects (11 men and 13 women), suffering from a major depressive disorder.\nChosen patients afflicted with a major depressive disorder according to DSM III were given no treatment 4 days prior to the experiment, except for 5 mg nitrazepam in the evening.\nThe patients were divided into two groups. The first group was treated with a single daily dose of 40 mg 5-MOP during a week, administered orally at 9:00 p.m. The second group was given placebos, double blindly, under identical conditions.\nTo prevent any parallel effects due to the photosensitive properties of 5-MOP, patients were not exposed to ultraviolet (UV) radiation during nine hours following 5-MOP intake (corresponding to their sleep period).\nAfter a week of treatment with 5-methoxypsoralen or placebos, clinical results were established for each patient group, and compared using the Wilcoxon test (W) within groups and the Mann-Whitney test (U) between groups."}, "rabbits": {"tested_on": "rabbits", "assay": "Long-term toxicity, ingestive intake", "format": "in vivo", "conditions": "300 mg/kg daily, 42 consecutive days", "excerpt": "The general, long-term toxicity of 5-MOP was also investigated in rabbits treated by ingestion and dermal application, with the following results: […]"}, "plasma melatonin [4]": {"tested_on": "plasma melatonin", "conditions": "cited from earlier work"}},
  "note": "Entries after “also recorded” stand apart in the source; their conditions may differ.",
  "data": [
    {"smiles": "COc1c2occc2cc2ccc(=O)oc12", "note": "[8-methoxypsoralen, reference compound]", "values": [
      {"measurement": "LD50 at 336 h", "setting": "[1]; mouse, male mice", "result": 875, "unit": "mg/kg"},
      {"measurement": "LD50 at 336 h", "setting": "[1]; rat, male rats", "result": 4400, "unit": "mg/kg"}
    ]},
    {"smiles": "COc1c2ccoc2cc2oc(=O)ccc12", "note": "[5-MOP, 4-methoxy-7H-furo[3,2-g][1]benzopyran-7-one]", "values": [
      {"measurement": "Delta Melatonin", "setting": "plasma melatonin [2]; Control 1 (elderly sane)", "result": "0.22 ± 0.11", "unit": "nmd/1"},
      {"measurement": "Melatonin (11:00 p.m.)", "setting": "plasma melatonin [2]; Control 1 (elderly sane, n=13), baseline 8:00 p.m. 0.19 ± 0.05", "result": "0.42 ± 0.12", "unit": "nmd/1"},
      {"measurement": "Delta Melatonin", "setting": "plasma melatonin [2]; Control 2 (middle-aged sane)", "result": "0.20 ± 0.08", "unit": "nmd/1"},
      {"measurement": "Melatonin (11:00 p.m.)", "setting": "plasma melatonin [2]; Control 2 (middle-aged sane, n=13), baseline 8:00 p.m. 0.16 ± 0.04", "result": "0.36 ± 0.09", "unit": "nmd/1"},
      {"measurement": "Delta Melatonin", "setting": "plasma melatonin [2]; Control 3 (young sane)", "result": "0.21 ± 0.09", "unit": "nmd/1"},
      {"measurement": "Melatonin (11:00 p.m.)", "setting": "plasma melatonin [2]; Control 3 (young sane, n=13), baseline 8:00 p.m. 0.16 ± 0.05", "result": "0.36 ± 0.11", "unit": "nmd/1"},
      {"measurement": "correlation between melatonin levels and absolute 5-MOP content", "setting": "plasma melatonin [2]; at the dosage used (40 mg)", "result": "No correlation was observed"},
      {"measurement": "melatonin levels after 5-MOP intake (in words)", "setting": "plasma melatonin [2]; control groups, vs before intake, t=4.59, p<0.01, t=4.18, p<0.001, t<3.92, p<0.001", "result": "substantially higher"},
      {"measurement": "Melatonin (11:00 p.m.)", "setting": "plasma melatonin [2]; dements (n=13), baseline 8:00 p.m. 0.21 ± 0.06, t=3.34, p<0.01", "result": "0.30 ± 0.08", "unit": "nmd/1"},
      {"measurement": "mean delta melatonin vs control group (in words)", "setting": "plasma melatonin [2]; dements vs elderly control group, r=2.4, p<0.03", "result": "substantially lower"},
      {"measurement": "Delta Melatonin", "setting": "plasma melatonin [2]; dements, vs Control 1 t/p 2.4/0.025", "result": "0.09 ± 0.06", "unit": "nmd/1"},
      {"measurement": "Melatonin (11:00 p.m.)", "setting": "plasma melatonin [2]; depressives (n=13), baseline 8:00 p.m. 0.22 ± 0.06, t=2.29, p<0.05", "result": "0.39 ± 0.15", "unit": "nmd/1"},
      {"measurement": "mean delta melatonin vs control group (in words)", "setting": "plasma melatonin [2]; depressives vs control group, r=0.59, p<0.05, not significant", "result": "slightly lower"},
      {"measurement": "Delta Melatonin", "setting": "plasma melatonin [2]; depressives, vs Control 2 t/p 0.59/0.562", "result": "0.17 ± 0.09", "unit": "nmd/1"},
      {"measurement": "plasma melatonin levels after administration (in words)", "setting": "plasma melatonin [2]; psychiatric subjects", "result": "significant rise; also recorded: significant increase"},
      {"measurement": "Melatonin (11:00 p.m.)", "setting": "plasma melatonin [2]; schizophrenics (n=13), baseline 8:00 p.m. 0.21 ± 0.09, t=8.31, p<0.0001", "result": "0.48 ± 0.09", "unit": "nmd/1"},
      {"measurement": "Delta Melatonin", "setting": "plasma melatonin [2]; schizophrenics, vs Control 3 t/p 0.58/0.567", "result": "0.15 ± 0.05", "unit": "nmd/1"},
      {"measurement": "side-effects", "setting": "plasma melatonin [2]; single 40 mg oral dose, all groups", "result": "No patient exhibited side-effects"},
      {"measurement": "LD50 at 336 h", "setting": "[1]; mouse, male mice", "result": 8100, "unit": "mg/kg"},
      {"measurement": "LD50 at 336 h", "setting": "[1]; rat, male rats", "result": "> 30000", "unit": "mg/kg"},
      {"measurement": "side effects", "setting": "[3]; 40 mg daily oral, one week", "result": "no patient treated with 5-MOP suffered side effects"},
      {"measurement": "treatment period to obtain the same improvement in behavior", "setting": "[3]; 5-MOP composition compared with tricyclics", "result": "one"},
      {"measurement": "HDRS J7", "setting": "[3]; 17 HDRS items, 40 mg daily oral 9:00 p.m., one week, n=12, HDRS J0 21.92 ± 8.21, W 3.5, p 0.01, placebo J7 21.16 ± 5.02", "result": "16.67 ± 7.99"},
      {"measurement": "improvement of depressive state (in words)", "setting": "[3]; after a week of treatment, 40 mg daily oral, vs placebo", "result": "significant improvement; also recorded: rapid improvement from depression; also recorded: significantly improves the depressive state"},
      {"measurement": "effect without UVA irradiation", "setting": "[3]; without irradiation of patients by UVA", "result": "full effect"},
      {"measurement": "tolerance in toxicological tests (general condition, hematological, anatomicopathological, skin and eye, clinical chemolysis)", "setting": "rabbits", "result": "good tolerance"},
      {"measurement": "retinal sensitivity to light", "setting": "plasma melatonin [4]; humans, acute effect", "result": "increases"},
      {"measurement": "plasma melatonin levels / melatonin secretion (in words)", "setting": "plasma melatonin [4]; humans, sane subjects, earlier reports", "result": "increased melatonin secretion; also recorded: increases in plasma melatonin levels"},
      {"measurement": "effect on other endocrine hormones", "setting": "plasma melatonin [4]; perfectly sane human subjects", "result": "no discernible effect"}
    ]}
  ]
}
